In patent publication US10131652B2, “Pyrimidinyloxy benzene derivatives as herbicides” (E. I. DU PONT DE NEMOURS AND COMPANY, priority 2014, dated 2018):
Like-named read-outs stand apart in the source and are kept apart here.

Experiments:
Test in all cases: Test E pre-/postemergence plant response
Format in all cases: in vivo
[1] = system: deadnettle (henbit deadnettle, Lamium amplexicaule); conditions: scale 0 to 100, read-out: Plant response rating, Deadnettle; for pest or weed control at 16 g/ha: 16 g ai/ha; for pest or weed control at 31 g/ha: 31 g ai/ha; for pest or weed control at 62 g/ha: 62 g ai/ha; for pest or weed control at 125 g/ha: 125 g ai/ha
Method in brief: (§1)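 Visual scores on a 0–100 scale (100 = complete control) were assigned against untreated controls 7–21 days after treatment in a controlled environment. Compounds, formulated with solvent plus surfactant, were applied to pre-emergence silt-loam sowings or to 1- to 4-leaf plants (2–18 cm) in potting medium.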

[2] = system: wild radish (Raphanus raphanistrum); conditions: scale 0 to 100, read-out: Plant response rating, Radish, Wild; for pest or weed control at 16 g/ha: 16 g ai/ha; for pest or weed control at 31 g/ha: 31 g ai/ha; for pest or weed control at 62 g/ha: 62 g ai/ha; for pest or weed control at 125 g/ha: 125 g ai/ha
Method in brief: as §1

[3] = system: field poppy (Papaver rhoeas); conditions: scale 0 to 100, read-out: Plant response rating, Field Poppy; for pest or weed control at 16 g/ha: 16 g ai/ha; for pest or weed control at 31 g/ha: 31 g ai/ha; for pest or weed control at 62 g/ha: 62 g ai/ha; for pest or weed control at 125 g/ha: 125 g ai/ha
Method in brief: as §1

[4] = system: green foxtail (Setaria viridis); conditions: scale 0 to 100, read-out: Plant response rating, Foxtail, Green; for pest or weed control at 31 g/ha: 31 g ai/ha; for pest or weed control at 62 g/ha: 62 g ai/ha; for pest or weed control at 125 g/ha: 125 g ai/ha
Method in brief: as §1

[5] = system: pigweed (Amaranthus retroflexus); conditions: scale 0 to 100, read-out: Plant response rating, Pigweed; for pest or weed control at 16 g/ha: 16 g ai/ha; for pest or weed control at 31 g/ha: 31 g ai/ha; for pest or weed control at 62 g/ha: 62 g ai/ha; for pest or weed control at 125 g/ha: 125 g ai/ha
Method in brief: as §1

[6] = system: spring wheat (Triticum aestivum); conditions: post-emergence, Postemergence, scale 0 to 100, read-out: Plant response rating, Wheat, Spring
Method in brief: as §1

[7] = system: wild buckwheat (Polygonum convolvulus); conditions: Fallopia convolvulus, scale 0 to 100, read-out: Plant response rating, Buckwheat, Wild; for pest or weed control at 16 g/ha: 16 g ai/ha; for pest or weed control at 31 g/ha: 31 g ai/ha; for pest or weed control at 62 g/ha: 62 g ai/ha; for pest or weed control at 125 g/ha: 125 g ai/ha
Method in brief: as §1

[8] = system: lambsquarters (Chenopodium album); conditions: scale 0 to 100, read-out: Plant response rating, Lambsquarters; for pest or weed control at 16 g/ha: 16 g ai/ha; for pest or weed control at 31 g/ha: 31 g ai/ha; for pest or weed control at 62 g/ha: 62 g ai/ha; for pest or weed control at 125 g/ha: 125 g ai/ha
Method in brief: as §1

[9] = system: winter wheat (Triticum aestivum); conditions: post-emergence, Postemergence, scale 0 to 100, read-out: Plant response rating, Wheat, Winter
Method in brief: as §1

[10] = system: field violet (Viola arvensis); conditions: scale 0 to 100, read-out: Plant response rating, Field Violet; for pest or weed control at 31 g/ha: 31 g ai/ha; for pest or weed control at 125 g/ha: 125 g ai/ha
Method in brief: as §1

[11] = system: Italian ryegrass (Lolium multiflorum); conditions: scale 0 to 100, read-out: Plant response rating, Ryegrass, Italian; for pest or weed control at 16 g/ha: 16 g ai/ha; for pest or weed control at 31 g/ha: 31 g ai/ha; for pest or weed control at 62 g/ha: 62 g ai/ha; for pest or weed control at 125 g/ha: 125 g ai/ha
Method in brief: as §1

[12] = post-emergence, 16 g ai/ha, Postemergence

Q: With `FC(F)(F)c1cc(-c2ccccc2Oc2ncc(Cl)cn2)no1` [Compound 200, 5-chloro-2-[2-[5-(trifluoromethyl)-3-isoxazolyl]phenoxy]pyrimidine] as the molecule, how does the pest or weed control at 16 g/ha ([1]; post-emergence, Postemergence) read?
A: 50%

Q: What about the pest or weed control at 31 g/ha ([1]; post-emergence, Postemergence) of the same molecule?
A: 60%

Q: What about the pest or weed control at 62 g/ha ([1]; post-emergence, Postemergence) of the same molecule?
A: 80%

Q: And the pest or weed control at 125 g/ha ([1]; post-emergence, Postemergence)?
A: 90%

Q: And the pest or weed control at 16 g/ha ([1]; pre-emergence, Preemergence)?
A: 60%

Q: And the pest or weed control at 31 g/ha ([1]; pre-emergence, Preemergence)?
A: 90%

Q: And the pest or weed control at 62 g/ha ([1]; pre-emergence, Preemergence)?
A: 100%

Q: And the pest or weed control at 125 g/ha ([1]; pre-emergence, Preemergence)?
A: 100%

Q: What about the pest or weed control at 16 g/ha ([2]; post-emergence, Postemergence) of the same molecule?
A: 65%

Q: And the pest or weed control at 31 g/ha ([2]; post-emergence, Postemergence)?
A: 80%

Q: And the pest or weed control at 62 g/ha ([2]; post-emergence, Postemergence)?
A: 85%

Q: What about the pest or weed control at 125 g/ha ([2]; post-emergence, Postemergence) of the same molecule?
A: 95%

Q: And the pest or weed control at 16 g/ha ([2]; pre-emergence, Preemergence)?
A: 80%

Q: And the pest or weed control at 31 g/ha ([2]; pre-emergence, Preemergence)?
A: 70%

Q: What about the pest or weed control at 62 g/ha ([2]; pre-emergence, Preemergence) of the same molecule?
A: 95%

Q: And the pest or weed control at 125 g/ha ([2]; pre-emergence, Preemergence)?
A: 95%

Q: And the pest or weed control at 16 g/ha ([3]; post-emergence, Postemergence)?
A: 75%

Q: What about the pest or weed control at 31 g/ha ([3]; post-emergence, Postemergence) of the same molecule?
A: 80%

Q: What about the pest or weed control at 62 g/ha ([3]; post-emergence, Postemergence) of the same molecule?
A: 100%

Q: And the pest or weed control at 125 g/ha ([3]; post-emergence, Postemergence)?
A: 100%

Q: What about the pest or weed control at 16 g/ha ([3]; pre-emergence, Preemergence) of the same molecule?
A: 80%

Q: What about the pest or weed control at 31 g/ha ([3]; pre-emergence, Preemergence) of the same molecule?
A: 90%

Q: And the pest or weed control at 62 g/ha ([3]; pre-emergence, Preemergence)?
A: 95%

Q: And the pest or weed control at 125 g/ha ([3]; pre-emergence, Preemergence)?
A: 95%

Q: What about the pest or weed control at 16 g/ha [4, 12] of the same molecule?
A: 25%

Q: What about the pest or weed control at 31 g/ha ([4]; post-emergence, Postemergence) of the same molecule?
A: 35%

Q: What about the pest or weed control at 62 g/ha ([4]; post-emergence, Postemergence) of the same molecule?
A: 45%

Q: What about the pest or weed control at 125 g/ha ([4]; post-emergence, Postemergence) of the same molecule?
A: 55%

Q: And the pest or weed control at 31 g/ha ([4]; pre-emergence, Preemergence)?
A: 25%

Q: What about the pest or weed control at 62 g/ha ([4]; pre-emergence, Preemergence) of the same molecule?
A: 100%

Q: And the pest or weed control at 125 g/ha ([4]; pre-emergence, Preemergence)?
A: 100%

Q: And the pest or weed control at 16 g/ha ([5]; post-emergence, Postemergence)?
A: 85%

Q: What about the pest or weed control at 31 g/ha ([5]; post-emergence, Postemergence) of the same molecule?
A: 90%

Q: And the pest or weed control at 62 g/ha ([5]; post-emergence, Postemergence)?
A: 90%

Q: What about the pest or weed control at 125 g/ha ([5]; post-emergence, Postemergence) of the same molecule?
A: 90%

Q: And the pest or weed control at 16 g/ha ([5]; pre-emergence, Preemergence)?
A: 100%

Q: And the pest or weed control at 31 g/ha ([5]; pre-emergence, Preemergence)?
A: 100%

Q: What about the pest or weed control at 62 g/ha ([5]; pre-emergence, Preemergence) of the same molecule?
A: 100%

Q: And the pest or weed control at 125 g/ha ([5]; pre-emergence, Preemergence)?
A: 100%

Q: And the plant injury at 16 g/ha ([6]; 16 g ai/ha)?
A: 5%

Q: And the plant injury at 31 g/ha ([6]; 31 g ai/ha)?
A: 10%

Q: And the plant injury at 62 g/ha ([6]; 62 g ai/ha)?
A: 20%

Q: And the plant injury at 125 g/ha ([6]; 125 g ai/ha)?
A: 35%

Q: And the pest or weed control at 16 g/ha ([7]; post-emergence, Postemergence)?
A: 65%

Q: And the pest or weed control at 31 g/ha ([7]; post-emergence, Postemergence)?
A: 70%

Q: What about the pest or weed control at 62 g/ha ([7]; post-emergence, Postemergence) of the same molecule?
A: 95%

Q: And the pest or weed control at 125 g/ha ([7]; post-emergence, Postemergence)?
A: 100%

Q: And the pest or weed control at 16 g/ha ([7]; pre-emergence, Preemergence)?
A: 65%

Q: What about the pest or weed control at 31 g/ha ([7]; pre-emergence, Preemergence) of the same molecule?
A: 75%

Q: And the pest or weed control at 62 g/ha ([7]; pre-emergence, Preemergence)?
A: 100%

Q: What about the pest or weed control at 125 g/ha ([7]; pre-emergence, Preemergence) of the same molecule?
A: 100%

Q: And the pest or weed control at 16 g/ha ([8]; post-emergence, Postemergence)?
A: 75%

Q: What about the pest or weed control at 31 g/ha ([8]; post-emergence, Postemergence) of the same molecule?
A: 85%

Q: What about the pest or weed control at 62 g/ha ([8]; post-emergence, Postemergence) of the same molecule?
A: 90%

Q: What about the pest or weed control at 125 g/ha ([8]; post-emergence, Postemergence) of the same molecule?
A: 95%

Q: What about the pest or weed control at 16 g/ha ([8]; pre-emergence, Preemergence) of the same molecule?
A: 10%

Q: What about the pest or weed control at 31 g/ha ([8]; pre-emergence, Preemergence) of the same molecule?
A: 85%

Q: And the pest or weed control at 62 g/ha ([8]; pre-emergence, Preemergence)?
A: 100%

Q: And the pest or weed control at 125 g/ha ([8]; pre-emergence, Preemergence)?
A: 100%

Q: What about the plant injury at 16 g/ha ([9]; 16 g ai/ha) of the same molecule?
A: 0%

Q: And the plant injury at 31 g/ha ([9]; 31 g ai/ha)?
A: 5%

Q: And the plant injury at 62 g/ha ([9]; 62 g ai/ha)?
A: 15%

Q: And the plant injury at 125 g/ha ([9]; 125 g ai/ha)?
A: 25%

Q: And the pest or weed control at 16 g/ha [10, 12]?
A: 70%

Q: What about the pest or weed control at 31 g/ha ([10]; post-emergence, Postemergence) of the same molecule?
A: 80%

Q: What about the pest or weed control at 62 g/ha ([10]; post-emergence, 62 g ai/ha, Postemergence) of the same molecule?
A: 75%

Q: What about the pest or weed control at 125 g/ha ([10]; post-emergence, Postemergence) of the same molecule?
A: 95%

Q: What about the pest or weed control at 31 g/ha ([10]; pre-emergence, Preemergence) of the same molecule?
A: 50%

Q: And the pest or weed control at 125 g/ha ([10]; pre-emergence, Preemergence)?
A: 100%

Q: And the pest or weed control at 16 g/ha ([11]; post-emergence, Postemergence)?
A: 5%

Q: And the pest or weed control at 31 g/ha ([11]; post-emergence, Postemergence)?
A: 10%

Q: What about the pest or weed control at 62 g/ha ([11]; post-emergence, Postemergence) of the same molecule?
A: 25%

Q: What about the pest or weed control at 125 g/ha ([11]; post-emergence, Postemergence) of the same molecule?
A: 40%

Q: What about the pest or weed control at 16 g/ha ([11]; pre-emergence, Preemergence) of the same molecule?
A: 0%

Q: What about the pest or weed control at 31 g/ha ([11]; pre-emergence, Preemergence) of the same molecule?
A: 25%

Q: And the pest or weed control at 62 g/ha ([11]; pre-emergence, Preemergence)?
A: 30%

Q: And the pest or weed control at 125 g/ha ([11]; pre-emergence, Preemergence)?
A: 85%
